Our source for the outcome and Potency values is PubChem BioAssay AID1208 (EPA DSSTox, 2008).

For the data set, the system named is rat chronic carcinogenicity bioassay, TD50. The data set is described as follows: DSSTox (CPDBAS) Carcinogenic Potency Database Summary Rat Bioassay Results. The note with it: for outcome: TD50_Rat_Note: no positive results; for Potency: active compounds read low. The method, boiled down: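 The activity score maps log10(1/TD50_Rat_mmol) linearly onto 1–100; actives without a computed TD50, such as mixtures, receive 50. Source data are chronic rat carcinogenicity tests, using the most positive experiment for each sex.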

Setting [1] is: TargetSites_Rat_Female: no positive results.
Setting [2] is: TD50_Rat_Note: TD50 is harmonic mean of more than one positive test, TargetSites_Rat_Female: kidney, urinary bladder.

Where “and” joins values, the source holds several entries; their conditions need not be identical. Identical values can stand only once. Calls of active or inactive are those of the source.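 How the source made its calls: active means at least one rat sex group has a carcinogenic potency value and tumor site recorded; inconclusive means only rat studies were judged inadequate by the national testing program; inactive means no potency or tumor site, with negative rat experiments.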

Consider `Oc1c(Cl)cc(Cl)c(Cl)c1Cc1c(O)c(Cl)cc(Cl)c1Cl`, for which the outcome under setting [1] was “inactive; no positive results”. As to `Nc1nc(N)nc(-c2cc(Cl)ccc2Cl)n1`, the outcome was “inactive; no positive results”. Consider `Cc1cccc2cccnc12`, for which the outcome under setting [1] was “inactive; no positive results”.

With `CCCCCCCCCCCN(C)N=O`, the Potency is 2.37 mg/kg/day. For the compound `C/C(=C(\CCOC(=O)c1ccccc1)SC(=O)c1ccccc1)N(C=O)Cc1cnc(C)nc1N`, the outcome under setting [1] is “inactive; no positive results”. For `CC(C)(CO)CCCCCCC(C)(C)CO`, the outcome under setting [1] was “inactive; no positive results”. Consider `ON=C1CCCC1`, for which the Potency is 40.9 mg/kg/day.

In the case of `O=[N+]([O-])c1ccc2c(c1)Cc1ccccc1-2`, the Potency is 0.285 mg/kg/day. In the case of `CCC(C(=O)NC(N)=O)c1ccccc1` (configuration not stated), the outcome was “inactive; no positive results”. As to `Nc1c(F)c(N)c(F)c(F)c1F`, the outcome was “inactive; no positive results”. `CC(=O)OC/C=C(\C)CCC=C(C)C`: under setting [1], the outcome was “inactive; no positive results”. Take `COc1cc(-c2ccc(N=Nc3c(S(=O)(=O)O)cc4cc(S(=O)(=O)O)cc(N)c4c3O)c(OC)c2)ccc1N=Nc1c(S(=O)(=O)O)cc2cc(S(=O)(=O)O)cc(N)c2c1O`: the Potency (TD50_Rat_Note: TD50 is harmonic mean of more than one positive test, TargetSites_Rat_Female: clitoral gland, ear Zymbals gland, hematopoietic system, large intestine, liver, oral cavity, skin, small intestine, ute) is 27.5 mg/kg/day. Regarding `Nc1ccccc1`, the outcome was “inactive; no positive results”. Moreover, under “TD50_Rat_Note: TD50 is harmonic mean of more than one positive test, greater than ten-fold variation among TD50 values for positive res, TargetSites_Rat_Female: peritoneal cavity”, the Potency was 269 mg/kg/day. For the compound `NS(=O)(=O)c1cc2c(cc1Cl)NCNS2(=O)=O`, the outcome under setting [1] was “inactive; no positive results”.

As for `CCCCCCCCCCCCCCCC(=O)CC(=O)CCCCCCCCCCCCCCC`, the outcome under setting [1] was inactive. As to `CC1(C)OC(=O)NC1=O`, the outcome is “inactive; no positive results”. For `C=C/C=N/O`, the outcome under setting [1] is “inactive; no positive results”. The same measure, in the same setting: the entry for `Oc1cccc2cccnc12` is “inactive; no positive results”. On to `CC1(C)C(=O)NC(=O)NC1=O`, for which the outcome is “inactive; no positive results”. As for `C=CCN(CC(C)O)N=O` (configuration not stated), the Potency (TargetSites_Rat_Female: esophagus, liver, nasal cavity) was 0.877 mg/kg/day.

Turning to `CCCCCCCC(=O)OCC(COC(=O)CCCCCCC)OC(=O)CCCCCCC`, the Potency was 5490 mg/kg/day. Turning to `CC(C)(C)c1cc(C(C)(C)C)c(O)c(C(C)(C)C)c1`, the outcome under setting [1] is “inactive; no positive results”. Same read-out and setting: the entry for `ClCC(Cl)(Cl)Cl` is “inactive; no positive results”; for `CC[C@H]1OC(=O)[C@H](C)[C@@H](O[C@H]2C[C@@](C)(OC)[C@@H](O)[C@H](C)O2)[C@H](C)[C@@H](O[C@@H]2O[C@H](C)C[C@H](N(C)C)[C@H]2O)[C@](C)(O)C[C@@H](C)C(=O)[C@H](C)[C@@H](O)[C@]1(C)O` it is “inactive; no positive results”. In the case of `Cc1cc2c(nc1N)[nH]c1ccccc12`, the Potency was 6.7 mg/kg/day. Turning to `O=C(O)CN(CC(=O)O)CC(=O)O`, the Potency under setting [2] is 1770 mg/kg/day and 370 mg/kg/day. For the compound `Nc1ccccc1-c1ccccc1`, the outcome under setting [1] was “inactive; no positive results”. On to `CC(=O)Nc1nnc(-c2ccc([N+](=O)[O-])o2)s1`, for which the Potency (TargetSites_Rat_Female: hematopoietic system, kidney, lung, small intestine, stomach, vascular system) is 8.84 mg/kg/day.

`CC1=C(/C=C/C(C)=C/C=C/C(C)=C/C=C/C=C(C)/C=C/C=C(C)/C=C/C2=C(C)CCCC2(C)C)C(C)(C)CCC1`: the outcome was “inactive; no positive results”. Take `Cc1ccccc1S(N)(=O)=O`: for the setting “TargetSites_Rat_BothSexes: urinary bladder”, the Potency is 3960 mg/kg/day. As to `OC(c1ccc(Cl)cc1)(c1ccc(Cl)cc1)C(Cl)(Cl)Cl`, under setting [1], the outcome was “inactive; no positive results”.

With `O=C(O)CNCC(=O)O`, the outcome under setting [1] was “inactive; no positive results”. Regarding `CCN(C)N=O`, under setting [1], the Potency was 0.0503 mg/kg/day. As to `Nc1ccc2c(c1)oc1ccccc12`, the Potency was 2.48 mg/kg/day. Regarding `ClCCCl`, the Potency (TD50_Rat_Note: TD50 is harmonic mean of more than one positive test, greater than ten-fold variation among TD50 values for positive res, TargetSites_Rat_Female: mammary gland, subcutaneous tissue) is 14.6 mg/kg/day. In the case of `CCN(N=O)C(=O)NCC(C)=O`, the Potency (TD50_Rat_Note: TD50 is harmonic mean of more than one positive test, harmonic mean of TD50 includes a value for upper 99% confidence li, TargetSites_Rat_Female: large intestine, lung, mammary gland, nervous system, skin, thyroid gland, uterus) is 0.181 mg/kg/day. As for `CCOP(=S)(OCC)Oc1ccc([N+](=O)[O-])cc1`, under setting [1], the outcome is “inactive; no positive results”.

As for `Nc1ccc(Oc2ccc(N)cc2)cc1`, the Potency (TD50_Rat_Note: TD50 is harmonic mean of more than one positive test, TargetSites_Rat_Female: liver, thyroid gland) is 9.51 mg/kg/day. As to `Nc1ccc([N+](=O)[O-])cc1O`, under setting [1], the Potency was 111 mg/kg/day. In the case of `Cc1ccc(-c2cc(C(F)(F)F)nn2-c2ccc(S(N)(=O)=O)cc2)cc1`, the outcome was “inactive; no positive results”. In the case of `CCCCCCCC/C=C\CCCCCCCC(=O)O`, the outcome under setting [1] was “inactive; no positive results”. As to `O=C1C=C2C(=CCOC2O)O1` (configuration not stated), the result under setting [1] was inactive. Consider `S=C(SN1CCOCC1)N1CCOCC1`, for which the Potency under setting [2] is 90.8 mg/kg/day. Consider `C=C1C/C(=C/C)C(=O)O[C@@H]2CCN3CC=C(COC(=O)[C@@]1(O)CO)[C@H]23`, for which the Potency (TD50_Rat_Note: TD50 is harmonic mean of more than one positive test, TargetSites_Rat_Female: hematopoietic system, liver, vascular system) is 0.119 mg/kg/day.

For the compound `O=NN1CCOCC1`, the Potency (TD50_Rat_Note: TD50 is harmonic mean of more than one positive test, TargetSites_Rat_Female: liver, vascular system) is 0.109 mg/kg/day. As to `CN(C)CCC(c1ccc(Cl)cc1)c1ccccn1` (configuration not stated), the outcome under setting [1] is “inactive; no positive results”. For `CC(C)C[C@H]1C(=O)N2CCC[C@H]2[C@]2(O)O[C@](NC(=O)[C@@H]3C=C4c5cccc6[nH]c(Br)c(c56)C[C@H]4N(C)C3)(C(C)C)C(=O)N12`, the Potency (TargetSites_Rat_Female: uterus) was 33.7 mg/kg/day. For the compound `CC(=O)Nc1ccc2c(c1)C(=O)c1ccccc1-2`, the Potency (TargetSites_Rat_Female: ear Zymbals gland, liver, mammary gland) is 6.17 mg/kg/day.

As to `S=P(N1CC1)(N1CC1)N1CC1`, the Potency (TD50_Rat_Note: positive test results only by intraperitoneal or intravenous injection, TD50 is harmonic mean of more than one positive, TargetSites_Rat_Female: ear Zymbals gland) is 0.164 mg/kg/day.

Consider `Cc1ncc[nH]1`, for which, for the setting “TD50_Rat_Note: TD50 is harmonic mean of more than one positive test, TargetSites_Rat_Female: thyroid gland”, the Potency was 868 mg/kg/day. In the case of `O=[N+]([O-])c1ccc(-c2nc(N3CCOCC3)c3ccccc3n2)s1`, the Potency (TargetSites_Rat_Female: all tumor bearing animals) was 5.03 mg/kg/day.

`Clc1cc2c(cc1Cl)Oc1cc(Cl)c(Cl)cc1O2`: the Potency (TD50_Rat_Note: TD50 is harmonic mean of more than one positive test, greater than ten-fold variation among TD50 values for positive res, TargetSites_Rat_Female: liver, lung) is 2.35e-05 mg/kg/day. For the compound `CCN(CC)C(=O)c1cccc(C)c1`, the outcome under setting [1] is “inactive; no positive results”. Take `C=C(C)[C@H]1CC=C(C)CC1`: the Potency under setting [1] was 204 mg/kg/day. Consider `O=NN(CCCl)C(=O)N[C@@H]1[C@@H](O)[C@H](O)[C@@H](CO)O[C@@H]1O`, for which, where the note is “TD50_Rat_Note: positive test results only by intraperitoneal or intravenous injection, TD50 is harmonic mean of more than one positive, TargetSites_Rat_Female: peritoneal cavity”, the Potency was 0.0375 mg/kg/day. For the compound `COc1cc(/C=C/C(=O)OCCc2ccccc2)ccc1O`, the outcome is “inactive; no positive results”.

As for `O=C(O)c1[nH]n(-c2ccc(S(=O)(=O)O)cc2)c(=O)c1N=Nc1ccc(S(=O)(=O)O)cc1`, the outcome under setting [1] is “inactive; no positive results”. Turning to `[Cl-].[Cl-].[Hg+2]`, under setting [1], the Potency is 3.12 mg/kg/day.

On to `CC(=O)OCc1ccccc1`, for which the outcome under setting [1] was “inactive; no positive results”.

Turning to `C=Cc1cccc(C)c1`, the outcome under setting [1] is “inactive; no positive results”. Still for that read-out and setting: to `COC(=O)NN` belongs “inactive; no positive results”. Turning to `C=CCN=C=S`, the Potency under setting [1] was 96 mg/kg/day.

On to `Cc1ncc([N+](=O)[O-])n1C`, for which the Potency (TargetSites_Rat_Female: mammary gland) is 17 mg/kg/day. With `CC1=NN(c2ccccc2)C(=O)C1`, the outcome under setting [1] was “inactive; no positive results”.

As for `CC(=O)Nc1ccc2c(c1)Cc1ccccc1-2`, the Potency (TD50_Rat_Note: TD50 is harmonic mean of more than one positive test, TargetSites_Rat_Female: liver, mammary gland, skin) is 1.22 mg/kg/day. As to `O[C@H]([C@H](O)[C@@H](O)CBr)[C@H](O)CBr`, the Potency (TD50_Rat_Note: positive test results only by intraperitoneal or intravenous injection) is 8.37 mg/kg/day. Regarding `CCNC(=O)N(CCO)N=O`, the Potency (TD50_Rat_Note: TD50 is harmonic mean of more than one positive test, TargetSites_Rat_Female: mammary gland) is 0.562 mg/kg/day. Consider `CCC[N+](=O)[O-]`, for which the outcome under setting [1] was “inactive; no positive results”.

With `C=CCO`, the outcome under setting [1] is “inactive; no positive results”. On to `c1ccc(N=Nc2ccccc2)cc1`, for which the Potency (TD50_Rat_Note: TD50 is harmonic mean of more than one positive test, TargetSites_Rat_Female: spleen) is 24.1 mg/kg/day. Take `Oc1ccccc1`: under setting [1], the outcome is “inactive; no positive results”. With `Cc1ccc(N)c(C)c1`, the outcome is “inactive; no positive results”.

As for `Cc1cc(Cl)ccc1N`, the outcome under setting [1] is “inactive; no positive results”. As for `OCC(O)CO`, where the note is “TargetSites_Rat_BothSexes: no positive results”, the outcome was inactive.

Turning to `CN(C)C=O`, the outcome under setting [1] was “inactive; no positive results”. Same read-out and setting: to `O=CCCCC=O` belongs “inactive; no positive results”; to `ClCc1ccccc1`, “inactive; no positive results”. Regarding `Nc1ncc([N+](=O)[O-])s1`, the Potency (TargetSites_Rat_Female: kidney, lung, mammary gland) was 44.6 mg/kg/day.

Consider `C=CC(=O)O`, for which the outcome under setting [1] is “inactive; no positive results”. Same read-out and setting: to `O=C1OC(=O)c2ccccc21` belongs “inactive; no positive results”; to `CCOC(=O)[C@H](CCc1ccccc1)N[C@@H](C)C(=O)N1Cc2ccccc2C[C@H]1C(=O)O`, “inactive; no positive results”.
